Measurements taken from US20190337924A1, “SUBSTITUTED HYDANTOIN AND THIOHYDANTOIN DERIVATIVES AS ANDROGEN RECEPTOR ANTAGONISTS” (Janssen Pharmaceutica NV, priority 2016, published 2019).
Where a name gives a salt, the structure may show the parent alone.

How the values were obtained:
VCaP cells = test: Prostate Cancer Cell Viability Assay-VCaP; assay type: cell-based; conditions: Homo sapiens, 120 h, 10% Charcoal Stripped Serum, 5 days, CellTiter-Glo, * n = 1
Protocol: VCaP cells were counted and seeded into black 384-well plates with clear bottoms at a concentration of 125,000 cells per mL in phenol red-free DMEM containing 10% Charcoal Stripped Serum. 16 μL of the suspension was added per well and incubated for 48 h to allow the cells to adhere. After 48 hours, a 12 point serial semilog dilution of each compound was added to the cells in 16 μL at a final concentration of 100 µM to 0.0003 μM. The compounds of Formula (I) were also run in antagonist mode using 30 pM R1881 in which 8 μL of the compound was added to the cells followed by 8 μL of R1881. After 5 days of incubation at 37° C., 16 μL Of CellTiter-Glo (Promega) was added to the cells and the relative luminescence units (RLUs) of each well determined using the Envision. The percent stimulation and % inhibition were determined for each sample and plotted using GraphPad Prism.

LNCaP F876L = test: LNCaP Proliferation Assay, LNCaP F876L; assay type: cell-based; conditions: Homo sapiens, 96 h, 1% CSS, 4 days, CellTiter-Glo, normalized to 0.1 nM R1881 stimulation
Protocol: LNCaP cells were expanded in RPMI 10% FBS in T150 flasks. The cells were dislodged with 0.25% Trypsin, washed in complete media, centrifuged (300 g, 3 min), and the supernatant aspirated. The cells were resuspended in RPMI phenol-red free media with 1% charcoal-stripped serum (CSS) and counted using a ViCELL (Beckman-Coulter). 7500 cells were added to each well of a white optical bottom 384-well plate and incubated for 2 days at 37° C. 5% CO2. Compound dilutions were prepared in RPMI CSS using 50 mM stock solutions and added to the cells either alone (agonist mode) or in combination with 0.1 nM R1881 (antagonist mode). The plates were incubated for 4 days, followed by addition of CellTiter-Glo Luminescent Cell Viability kit reagent (Promega). The plates were placed on a shaker at 3000 rpm for 10 minutes and then read on an EnVision plate reader (Perkin Elmer) using Luminescence assay default settings. The data was analyzed, normalized to 0.1 nM R1881 stimulation, and plotted in GraphPad Prism.

SMILES	IC50 (VCaP cells)	IC50 (LNCaP F876L)	melting point
CC1(C)C(=O)N(c2ccc(C#N)c(C(F)(F)F)c2)C(=S)N1c1ccc(OC2CCNCC2)cc1 [Compound 1, 4-(4,4-Dimethyl-5-oxo-3-(4-(piperidin-4-yloxy)phenyl)-2-thioxoimidazolidin-1-yl)-2-(trifluoromethyl)benzonitrile]	2310 nM	–	–
CN1CCC(Oc2ccc(N3C(=S)N(c4ccc(C#N)c(C(F)(F)F)c4)C(=O)C3(C)C)cc2)CC1 [Compound 2, 4-(4,4-Dimethyl-3-(4-((1-methylpiperidin-4-yl)oxy)phenyl)-5-oxo-2-thioxoimidazolidin-1-yl)-2-(trifluoromethyl)benzonitrile hydrochloride]	–	1.31 µM	–
CC1(C)C(=O)N(c2ccc(C#N)c(C(F)(F)F)c2)C(=S)N1c1ccc(OC2CCNCC2)nc1 [Compound 3, 4-(4,4-Dimethyl-5-oxo-3-(6-(piperidin-4-yloxy)pyridin-3-yl)-2-thioxoimidazolidin-1-yl)-2-(trifluoromethyl)benzonitrile hydrochloride]	4860 nM	–	–
CN1CCC(Oc2ccc(N3C(=S)N(c4ccc(C#N)c(C(F)(F)F)c4)C(=O)C3(C)C)cn2)CC1 [Compound 4, 4-(4,4-Dimethyl-3-(6-((1-methylpiperidin-4-yl)oxy)pyridin-3-yl)-5-oxo-2-thioxoimidazolidin-1-yl)-2-(trifluoromethyl)benzonitrile hydrochloride]	1660 nM	0.85 µM	–
CC1(C)C(=O)N(c2ccc(C#N)c(C(F)(F)F)c2)C(=S)N1c1cnc(OC2CCNCC2)nc1 [Compound 5, 4-(4,4-Dimethyl-5-oxo-3-(2-(piperidin-4-yloxy)pyrimidin-5-yl)-2-thioxoimidazolidin-1-yl)-2-(trifluoromethyl)benzonitrile]	13200 nM	0.95 µM	239 °C
CN1CCC(Oc2ncc(N3C(=S)N(c4ccc(C#N)c(C(F)(F)F)c4)C(=O)C3(C)C)cn2)CC1 [Compound 6, 4-(4,4-Dimethyl-3-(2-((1-methylpiperidin-4-yl)oxy)pyrimidin-5-yl)-5-oxo-2-thioxoimidazolidin-1-yl)-2-(trifluoromethyl)benzonitrile]	18400 nM	–	204.9 °C
CC1(C)C(=O)N(c2ccc(C#N)c(Cl)c2)C(=S)N1c1ccc(OC2CCNCC2)cc1 [Compound 7, 2-Chloro-4-(4,4-dimethyl-5-oxo-3-(4-(piperidin-4-yloxy)phenyl)-2-thioxoimidazolidin-1-yl)benzonitrile hydrochloride]	1440 nM	31.2 µM	–
CN1CCC(Oc2ccc(N3C(=S)N(c4ccc(C#N)c(Cl)c4)C(=O)C3(C)C)cc2)CC1 [Compound 8, 2-Chloro-4-(4,4-dimethyl-3-(4-((1-methylpiperidin-4-yl)oxy)phenyl)-5-oxo-2-thioxoimidazolidin-1-yl)benzonitrile hydrochloride]	3480 nM	–	–
CC1(C)C(=O)N(c2ccc(C#N)c(Cl)c2)C(=S)N1c1ccc(OC2CCNCC2)nc1 [Compound 9, 2-Chloro-4-(4,4-dimethyl-5-oxo-3-(6-(piperidin-4-yloxy)pyridin-3-yl)-2-thioxoimidazolidin-1-yl)benzonitrile hydrochloride]	1680 nM	–	–
CN1CCC(Oc2ccc(N3C(=S)N(c4ccc(C#N)c(Cl)c4)C(=O)C3(C)C)cn2)CC1 [Compound 10, 2-Chloro-4-(4,4-dimethyl-3-(6-((1-methylpiperidin-4-yl)oxy)pyridin-3-yl)-5-oxo-2-thioxoimidazolidin-1-yl)benzonitrile hydrochloride]	5540 nM	0.83 µM	–
N#Cc1ccc(N2C(=O)C3(CCC3)N(c3ccc(OC4CCNCC4)cc3)C2=S)cc1C(F)(F)F [Compound 11, 4-(8-Oxo-5-(4-(piperidin-4-yloxy)phenyl)-6-thioxo-5,7-diazaspiro[3.4]octan-7-yl)-2-(trifluoromethyl)benzonitrile]	1060 nM	–	172.4 °C
CN1CCC(Oc2ccc(N3C(=S)N(c4ccc(C#N)c(C(F)(F)F)c4)C(=O)C34CCC4)cc2)CC1 [Compound 12, 4-(5-(4-((1-Methylpiperidin-4-yl)oxy)phenyl)-8-oxo-6-thioxo-5,7-diazaspiro[3.4]octan-7-yl)-2-(trifluoromethyl)benzonitrile]	21000 nM	–	99.3 °C
N#Cc1ccc(N2C(=O)C3(CCC3)N(c3ccc(OC4CCNCC4)nc3)C2=S)cc1C(F)(F)F [Compound 13, 4-(8-Oxo-5-(6-(piperidin-4-yloxy)pyridin-3-yl)-6-thioxo-5,7-diazaspiro[3.4]octan-7-yl)-2-(trifluoromethyl)benzonitrile hydrochloride]	540 nM	–	–
CN1CCC(Oc2ccc(N3C(=S)N(c4ccc(C#N)c(C(F)(F)F)c4)C(=O)C34CCC4)cn2)CC1 [Compound 14, 4-(5-(6-((1-Methylpiperidin-4-yl)oxy)pyridin-3-yl)-8-oxo-6-thioxo-5,7-diazaspiro[3.4]octan-7-yl)-2-(trifluoromethyl)benzonitrile]	13100 nM	1.25 µM	–
N#Cc1ccc(N2C(=O)C3(CCC3)N(c3cnc(OC4CCNCC4)nc3)C2=S)cc1C(F)(F)F [Compound 15, 4-(8-Oxo-5-(2-(piperidin-4-yloxy)pyrimidin-5-yl)-6-thioxo-5,7-diazaspiro[3.4]octan-7-yl)-2-(trifluoromethyl)benzonitrile]	–	1.53 µM	137.4 °C
CN1CCC(Oc2ncc(N3C(=S)N(c4ccc(C#N)c(C(F)(F)F)c4)C(=O)C34CCC4)cn2)CC1 [Compound 16, 4-(5-(2-((1-Methylpiperidin-4-yl)oxy)pyrimidin-5-yl)-8-oxo-6-thioxo-5,7-diazaspiro[3.4]octan-7-yl)-2-(trifluoromethyl)benzonitrile]	5290 nM	–	161.9 °C
Cc1cc(N2C(=O)C3(CCC3)N(c3ccc(OC4CCN(C)CC4)cc3)C2=S)ccc1C#N [Compound 17, 2-Methyl-4-(5-(4-((1-methylpiperidin-4-yl)oxy)phenyl)-8-oxo-6-thioxo-5,7-diazaspiro[3.4]octan-7-yl)benzonitrile]	3420 nM	–	–
Cc1cc(N2C(=O)C3(CCC3)N(c3ccc(OC4CCN(C)CC4)nc3)C2=S)ccc1C#N [Compound 18, 2-Methyl-4-(5-(6-((1-methylpiperidin-4-yl)oxy)pyridin-3-yl)-8-oxo-6-thioxo-5,7-diazaspiro[3.4]octan-7-yl)benzonitrile]	12100 nM	0.84 µM	–
COc1cc(N2C(=O)C3(CCC3)N(c3ccc(OC4CCN(C)CC4)cc3)C2=S)ccc1C#N [Compound 19, 2-Methoxy-4-(5-(4-((1-methylpiperidin-4-yl)oxy)phenyl)-8-oxo-6-thioxo-5,7-diazaspiro[3.4]octan-7-yl)benzonitrile]	9870 nM	21.4 µM	–
COc1cc(N2C(=O)C3(CCC3)N(c3ccc(OC4CCN(C)CC4)nc3)C2=S)ccc1C#N [Compound 20, 2-Methoxy-4-(5-(6-((1-methylpiperidin-4-yl)oxy)pyridin-3-yl)-8-oxo-6-thioxo-5,7-diazaspiro[3.4]octan-7-yl)benzonitrile]	1400 nM	1.69 µM	–
N#Cc1ccc(N2C(=O)C3(CCC3)N(c3ccc(OC4CCNCC4)cc3)C2=S)cc1Cl [Compound 21, 2-Chloro-4-(8-oxo-5-(4-(piperidin-4-yloxy)phenyl)-6-thioxo-5,7-diazaspiro[3.4]octan-7-yl)benzonitrile]	1250 nM	3.78 µM	211 °C
CN1CCC(Oc2ccc(N3C(=S)N(c4ccc(C#N)c(Cl)c4)C(=O)C34CCC4)cc2)CC1 [Compound 22, 2-Chloro-4-(5-(4-((1-methylpiperidin-4-yl)oxy)phenyl)-8-oxo-6-thioxo-5,7-diazaspiro[3.4]octan-7-yl)benzonitrile]	580 nM	3.78 µM	152.2 °C
N#Cc1ccc(N2C(=O)C3(CCC3)N(c3ccc(OC4CCNCC4)nc3)C2=S)cc1Cl [Compound 23, 2-Chloro-4-(8-oxo-5-(6-(piperidin-4-yloxy)pyridin-3-yl)-6-thioxo-5,7-diazaspiro[3.4]octan-7-yl)benzonitrile hydrochloride]	540 nM	–	–
